Reference: publication PMC4187030, “Effect of cyclodextrin complexation on phenylpropanoids’ solubility and antioxidant activity” (Beilstein Journal of Organic Chemistry, 2014)
≈ marks a conversion by molar mass, not a printed value. Read-outs that look alike come from different tables or passages of the source.

Legend:
[1] = Intrinsic solubility (S0) of PP in water; assay type: physicochemical; conditions: thermodynamic from solid, absence of CD, 25 °C
Description: (§1) Phase solubility studies were carried out according to the method described by Higuchi and Connors. Excess amount of PP was added to 1 mL of CD solution at different concentrations ranging from 0 to 10 mM. The mixtures were shaken at 25 °C for 24 h then filtered through a 0.45 μm membrane filter. The concentration of PP in the filtrate was determined spectrophotometrically at the maximum wavelength corresponding to each PP. Phase solubility diagrams were obtained by plotting the solubility of PP as a function of CD concentration. Kf value of CD/PP inclusion complex was calculated from the linear segment of the phase–solubility diagrams using the following equation: […]
(§2) where S0 is the intrinsic solubility of PP in the absence of CD and the Slope is the slope of the phase–solubility profile. The solubilizing potential of CD was evaluated by the complexation efficiency (CE) parameter. CE equal the complex to free CD concentration ratio and was calculated from the slope of the phase solubility diagram: […]

[2] = Formation constants (Kf) by UV–visible spectral displacement method, HP-β-CD; assay type: physicochemical; conditions: UV–visible spectral displacement with MO (MO itself by direct titration), SD <10%
Description: (§3) Formation constant (Kf) values were calculated using a UV–visible spectral displacement method. This method implies first the characterization of the inclusion complexes between CDs and the competitor (methyl orange, MO). The results are summarized in Table 1 in comparison with values from the literature.
(§4) The UV–visible competition method with methyl orange (MO) as competitor was carried out according to the method described by Landy et al.. In order to calculate CD/PP Kf values, CD/MO inclusion complexes were firstly characterized by a direct titration method. Then, a spectral displacement method was applied by adding PP to a solution containing constant concentration of MO and CD. The addition of PP implied an absorbance increment leading to the calculation of CD/PP Kf values. Spectra were recorded between 520–530 nm for a MO concentration fixed at 0.1 mM. This wavelength range corresponds to the optimal spectral variation between the absorbance of free and complexed forms of MO. All Kf values were calculated by an algorithmic treatment applied to the first derivatives of UV spectra in order to avoid any spectral influence of diffraction phenomena. Absorption studies were performed using a UV–visible dual-beam spectrophotometer (Perkin Elmer Lambda 2S) with a 1 cm thick quartz cuvette.

[3] = Phase solubility studies, RAMEB; conditions: for Increase in formulation bulk / CE (complexation efficiency) / Kf: RAMEB; for Increase in formulation bulk: from CE and molecular weights; for CE (complexation efficiency): from slope of phase solubility diagram; for Kf: from slope of phase solubility diagram and S0, 25 °C; for St/S0 (solubility enhancement ratio): guest solubility in 10 mM RAMEB solution vs water
Description: as §1, §2
(§5) where [CD/PP] is the concentration of dissolved inclusion complex and [CD] is the concentration of dissolved free CD. The CE can be used to calculate the PP:CD ratio as follows:
(§6) The correlation between the CE and the molecular weight of CD or guest allowed the determination of the increase in formulation bulk which can be calculated using the following equation: […]
(§7) where MWCD and MWPP are the molecular weight values of CD and PP, respectively.

[4] = β-CD, cited from earlier work
[5] = Description: as §1, §2, §5, §6, §7
[6] = RAMEB, cited from earlier work
[7] = Phase solubility studies, β-CD
Description: as §1, §2, §5, §6, §7

[8] = Phase solubility studies, HP-β-CD
Description: as §1, §2, §5, §6, §7

[9] = HP-β-CD, cited from earlier work
[10] = CRYSMEB, cited from earlier work
[11] = DPPH radical scavenging activity; conditions: for Change of DPPH radical scavenging activity upon complexation with CDs: PP in 10 mM CD solution vs water; for Kinetic behavior of reaction with DPPH•: PP with ethanolic DPPH• solution; for DPPH radical scavenging (antioxidant) activity of PP alone: absence of CD, 1 h (3, 4, 6, 7) or 15 h (1, 2, 5), 25 °C
Description: The 2,2-diphenyl-1-picrylhydrazyl (DPPH) radical scavenging activity of PP and their inclusion complexes was measured using the method described by Brand-Williams, Cuvelier, and Berset (1995) with some modifications. 1 mg of PP was dissolved in 50 mL of water, or 10 mM CD solution. 2 mL aliquot of the solution was vigorously mixed with 2 mL of ethanolic DPPH^• solution (0.1 mM). […]. Blank sample was prepared by mixing 2 mL of distilled water with 2 mL of DPPH^• solution. The scavenging activity was calculated using the following equation: […]
where As and A0 are the absorbance of sample and blank sample, respectively.

[12] = α-CD, cited from earlier work
[13] = Phase solubility studies, CRYSMEB
Description: as §1, §2, §5, §6, §7

[14] = set-up: method as in earlier work; conditions: cited from earlier work
[15] = Formation constants (Kf) by UV–visible spectral displacement method, α-CD; assay type: physicochemical; conditions: UV–visible spectral displacement with MO (MO itself by direct titration), SD <10%
Description: as §3, §4

[16] = Formation constants (Kf) by UV–visible spectral displacement method, β-CD; assay type: physicochemical; conditions: UV–visible spectral displacement with MO (MO itself by direct titration), SD <10%
Description: as §3, §4

[17] = Formation constants (Kf) by UV–visible spectral displacement method, CRYSMEB; assay type: physicochemical; conditions: UV–visible spectral displacement with MO (MO itself by direct titration), SD <10%
Description: as §3, §4

[18] = Formation constants (Kf) by UV–visible spectral displacement method, RAMEB; assay type: physicochemical; conditions: UV–visible spectral displacement with MO (MO itself by direct titration), SD <10%
Description: as §3, §4

[19] = β-CD, from CE and molecular weights
[20] = HP-β-CD, from CE and molecular weights
[21] = HP-β-CD, from slope of phase solubility diagram and S0, 25 °C
[22] = CRYSMEB, from CE and molecular weights
[23] = CRYSMEB, from slope of phase solubility diagram and S0, 25 °C

C=CCc1ccc(O)c(OC)c1 [Eugenol (4), eugenol]
solubility at 24 h [1]: 1040 µg/mL (≈ 6320 µM)
Formation constant (Kf) [2]: 436 M⁻¹
Increase in formulation bulk [3]: 11
CE (complexation efficiency) [3]: 3.48
Kf [3]: 550 M⁻¹
St/S0 (solubility enhancement ratio) [3]: 2.2
Formation constant (Kf) ([4]; ref 21): 322 M⁻¹
Formation constant (Kf) ([4]; ref 24): 264 M⁻¹
Formation constant (Kf) ([4]; ref 25): 357 M⁻¹
CE (complexation efficiency) [5]: 1.56
Increase in formulation bulk [5]: 10
Kf [5]: 246 M⁻¹
Molar ratio (PP:CD) [5]: 1:1.64
Formation constant (Kf) ([6]; ref 21): 521 M⁻¹
Formation constant (Kf) ([6]; ref 24): 568 M⁻¹
CE (complexation efficiency) [7]: 3.25
Increase in formulation bulk [7]: 9
Kf [7]: 513 M⁻¹
Molar ratio (PP:CD) [7]: 1:1.31
CE (complexation efficiency) [8]: 2.81
Increase in formulation bulk [8]: 12
Kf [8]: 445 M⁻¹
Molar ratio (PP:CD) [8]: 1:1.36
Formation constant (Kf) ([9]; ref 21): 445 M⁻¹
Formation constant (Kf) ([9]; ref 24): 462 M⁻¹
Formation constant (Kf) ([10]; ref 21): 401 M⁻¹
Formation constant (Kf) ([10]; ref 24): 454 M⁻¹
Change of DPPH radical scavenging activity upon complexation with CDs [11]: kept unchanged
Kinetic behavior of reaction with DPPH• [11]: reacted rapidly
DPPH radical scavenging (antioxidant) activity of PP alone [11]: higher antioxidant activity
Formation constant (Kf) ([12]; ref 24): 94 M⁻¹
CE (complexation efficiency) [13]: 2.78
Increase in formulation bulk [13]: 10
Kf [13]: 440 M⁻¹
Molar ratio (PP:CD) [13]: 1:1.36
log P [14]: 2.100
Formation constant (Kf) [15]: 350 M⁻¹

C/C=C/c1ccc(OC)cc1 [trans-Anethole (1), trans-anethole]
Formation constant (Kf) [2]: 845 M⁻¹
Formation constant (Kf) ([4]; ref 11): 630 M⁻¹
Formation constant (Kf) ([4]; ref 23): 497 M⁻¹
Formation constant (Kf) ([6]; ref 11): 1553 M⁻¹
Formation constant (Kf) ([6]; ref 23): 1110 M⁻¹
Formation constant (Kf) [16]: 542 M⁻¹
Formation constant (Kf) ([9]; ref 11): 1042 M⁻¹
Formation constant (Kf) ([9]; ref 23): 981 M⁻¹
Formation constant (Kf) ([10]; ref 11): 740 M⁻¹
Formation constant (Kf) ([10]; ref 23): 877 M⁻¹
Change of DPPH radical scavenging activity upon complexation with CDs [11]: increase in activity
Kinetic behavior of reaction with DPPH• [11]: slow kinetic behavior
DPPH radical scavenging (antioxidant) activity of PP alone [11]: reacted little
Formation constant (Kf) [17]: 1039 M⁻¹
Formation constant (Kf) [18]: 1815 M⁻¹
Formation constant (Kf) ([12]; ref 11): 1163 M⁻¹
Formation constant (Kf) ([12]; ref 23): 710 M⁻¹
log P [14]: 3.096
Formation constant (Kf) [15]: 927 M⁻¹

O=C(O)/C=C/c1ccc(O)c(O)c1 [Caffeic acid (6), caffeic acid]
solubility at 24 h [1]: 300 µg/mL (≈ 1670 µM)
Formation constant (Kf) [2]: 526 M⁻¹
Increase in formulation bulk [3]: 13
Kf [3]: 825 M⁻¹
Formation constant (Kf) ([4]; ref 26): 278 M⁻¹
Formation constant (Kf) ([4]; ref 27): 516 M⁻¹
Increase in formulation bulk [5]: 7
Kf [5]: 1819 M⁻¹
Kf [7]: 425 M⁻¹
Increase in formulation bulk [7, 19]: 15
Formation constant (Kf) [16]: 318 M⁻¹
Increase in formulation bulk [8, 20]: 18
Kf [8, 21]: 534 M⁻¹
Formation constant (Kf) ([9]; ref 28): 279 M⁻¹
Change of DPPH radical scavenging activity upon complexation with CDs [11]: kept unchanged
Kinetic behavior of reaction with DPPH• [11]: reacted rapidly
DPPH radical scavenging (antioxidant) activity of PP alone [11]: higher antioxidant activity
Formation constant (Kf) [17]: 404 M⁻¹
Formation constant (Kf) [18]: 991 M⁻¹
Increase in formulation bulk [13, 22]: 14
Kf [13, 23]: 552 M⁻¹
Formation constant (Kf) [15]: 1540 M⁻¹

O=C(O)/C=C/c1ccc(O)cc1 [p-Coumaric acid (5), p-coumaric acid]
solubility at 24 h [1]: 344 µg/mL (≈ 2100 µM)
Formation constant (Kf) [2]: 787 M⁻¹
Increase in formulation bulk [3]: 11
CE (complexation efficiency) [3]: 2.57
Kf [3]: 1228 M⁻¹
St/S0 (solubility enhancement ratio) [3]: 4.4
CE (complexation efficiency) [5]: 4.17
Increase in formulation bulk [5]: 7
Kf [5]: 1988 M⁻¹
Molar ratio (PP:CD) [5]: 1:1.24
St/S0 (solubility enhancement ratio) ([7]; guest solubility in 10 mM β-CD solution vs water): 2.8
Increase in formulation bulk [7, 19]: 18
CE (complexation efficiency) ([7]; β-CD, from slope of phase solubility diagram): 0.64
Kf ([7]; β-CD, from slope of phase solubility diagram and S0, 25 °C (linear portion for 1 and 2)): 306 M⁻¹
Formation constant (Kf) [16]: 338 M⁻¹
Increase in formulation bulk [8, 20]: 13
CE (complexation efficiency) ([8]; HP-β-CD, from slope of phase solubility diagram): 2.30
Kf [8, 21]: 1099 M⁻¹
St/S0 (solubility enhancement ratio) ([8]; guest solubility in 10 mM HP-β-CD solution vs water): 4.4
Change of DPPH radical scavenging activity upon complexation with CDs [11]: kept unchanged
Kinetic behavior of reaction with DPPH• [11]: slow kinetic behavior
DPPH radical scavenging (antioxidant) activity of PP alone [11]: higher antioxidant activity
Formation constant (Kf) [17]: 668 M⁻¹
Formation constant (Kf) [18]: 1030 M⁻¹
Increase in formulation bulk [13, 22]: 11
CE (complexation efficiency) ([13]; CRYSMEB, from slope of phase solubility diagram): 1.89
Kf [13, 23]: 900 M⁻¹
St/S0 (solubility enhancement ratio) ([13]; guest solubility in 10 mM CRYSMEB solution vs water): 4
log P [14]: 1.43
Formation constant (Kf) [15]: 1816 M⁻¹
